Earlier results in patent US10913844B2, “Plasticized thermoset resin, and associated cured resin, method of curing, and article comprising cured resin” (The University of Massachusetts, priority 2016, dated 2021).

Conditions: solvent furfural

SMILES: C1N2CN3CN1CN(C2)C3 [HMTA, hexamethylenetetramine]
- solubility of HMTA in furfural: less than two
